23 molecules from PubChem BioAssay (NCI) can be followed below.

Test systems include CCRF-CEM leukemia; HCT-15 colon; LOX IMVI melanoma; M14 melanoma; MCF7 breast; MDA-N; NCI-H460 lung; OVCAR-4 ovarian; OVCAR-5 ovarian; RXF 393 renal.
Common to all, as to assay: NCI-60 cell line screen, 48 h

SMILES strings stand for the structures.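 Growth conditions: 96-well plates. Treatment: test compound, 48 hours, 5 concentrations. Analysis: linear interpolation between bracketing concentrations; unreached endpoints set to highest concentration. The concentration for full growth arrest is given as TGI.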

With `O=C1OC(C2Cc3ccccc3C2=O)c2ccccc21` (stereo not given), the TGI with CCRF-CEM leukemia, in the assay with HCT-15 colon, in the assay with LOX IMVI melanoma, in the assay with M14 melanoma, in the assay with MCF7 breast and with MDA-N was above 100 µM throughout. Moreover, the TGI with NCI-H460 lung, in the assay on OVCAR-4 ovarian, with OVCAR-5 ovarian and in the assay with RXF 393 renal was above 100 µM in each case.

As to `CC(=O)Nc1ccc(N2C(=O)CS(=O)(=O)C2c2cccc(Oc3ccccc3)c2)cc1` (stereo not given), the TGI in the assay with CCRF-CEM leukemia was above 100 µM; in the assay on HCT-15 colon it was 39.5 µM; in the assay on LOX IMVI melanoma, 35.5 µM; with M14 melanoma, 33.9 µM; in the assay with MCF7 breast, 35.9 µM; with MDA-N, 32.5 µM. Also, the TGI with NCI-H460 lung is 34.7 µM; with OVCAR-4 ovarian it was 38.9 µM; with OVCAR-5 ovarian it was 37.2 µM; in the assay with RXF 393 renal it was 39.7 µM.

For `CC(=O)[C@H]1CC[C@H]2[C@@H]3CCC4=CC(=O)CC[C@]4(C)[C@H]3CC[C@]12C`, the TGI in the assay with CCRF-CEM leukemia is 48 µM; with HCT-15 colon, 69.3 µM; with LOX IMVI melanoma, 33.3 µM; in the assay on M14 melanoma it was 32.4 µM; with MCF7 breast, 50.4 µM; with MDA-N, 35.9 µM. The TGI turned out to be 42.4 µM in the assay with NCI-H460 lung, 79.3 µM in the assay on OVCAR-4 ovarian, 50.9 µM with OVCAR-5 ovarian and 57.9 µM in the assay on RXF 393 renal.

As for `O=C(O)CCC(C(=O)O)N1C(=O)c2ccccc2C1=O` (stereo not given), the TGI in the assay with CCRF-CEM leukemia, with HCT-15 colon, in the assay on LOX IMVI melanoma, with M14 melanoma, in the assay with MCF7 breast and in the assay on MDA-N was above 100 µM throughout. Moreover, the TGI in the assay with NCI-H460 lung, in the assay on OVCAR-4 ovarian, with OVCAR-5 ovarian and with RXF 393 renal was above 100 µM in each case.

`O=C1CSC(c2cccc(Cl)c2)N1c1c(O)c(Cl)cc(Br)c1Cl` (stereo not given): the TGI in the assay on CCRF-CEM leukemia was 44.8 µM; in the assay on HCT-15 colon, 28.3 µM; in the assay on LOX IMVI melanoma it was 29.8 µM; with M14 melanoma, above 100 µM; with MCF7 breast, 29 µM; with MDA-N it was 34.1 µM. The TGI is above 100 µM in the assay with NCI-H460 lung, 28.1 µM with OVCAR-4 ovarian, above 100 µM in the assay on OVCAR-5 ovarian and 35.7 µM with RXF 393 renal.

As to `COC(=O)c1c(O)ccc2c1c1c(n2Cc2ccc(OC)cc2)C(=O)c2ccccc2C1=O`, the TGI in the assay on CCRF-CEM leukemia amounted to 0.296 µM; in the assay on HCT-15 colon, 16.7 µM; with LOX IMVI melanoma, 23.2 µM; in the assay on M14 melanoma it was 32.4 µM; in the assay with MCF7 breast it was 26.7 µM; in the assay on MDA-N, 32.7 µM. Moreover, the TGI with NCI-H460 lung came out at 33.3 µM; in the assay with OVCAR-4 ovarian, 35.2 µM; in the assay with OVCAR-5 ovarian, 51.7 µM; in the assay with RXF 393 renal, 34.3 µM.

On to `O=C(O)CS(=O)c1ccc2c3c(cccc13)C(=O)c1ccccc1-2` (stereo not given), for which the TGI in the assay with CCRF-CEM leukemia, in the assay with HCT-15 colon, with LOX IMVI melanoma, with M14 melanoma, with MCF7 breast and with MDA-N was above 100 µM throughout. For the same molecule, the TGI in the assay with NCI-H460 lung, with OVCAR-4 ovarian, with OVCAR-5 ovarian and with RXF 393 renal was above 100 µM throughout.

As for `O=c1[nH]nc(-c2ccc([N+](=O)[O-])cc2)n1/N=C/c1ccc([N+](=O)[O-])cc1`, the TGI with CCRF-CEM leukemia was above 100 µM; in the assay with HCT-15 colon it was above 100 µM; in the assay with LOX IMVI melanoma it was 34.4 µM; with M14 melanoma it was above 100 µM; with MCF7 breast it was above 100 µM; with MDA-N, above 100 µM. The TGI with NCI-H460 lung, in the assay with OVCAR-4 ovarian, with OVCAR-5 ovarian and with RXF 393 renal was above 100 µM throughout.

As for `CN(C)Cc1cc(C(C)(C)C)cc(CNC2CCCCC2)c1O`, the TGI is 43.7 µM with CCRF-CEM leukemia; above 100 µM in the assay with HCT-15 colon; 76.5 µM in the assay with LOX IMVI melanoma; 34.4 µM in the assay on M14 melanoma; above 100 µM in the assay on MCF7 breast; above 100 µM in the assay on MDA-N. In addition, the TGI is 44.6 µM in the assay with NCI-H460 lung, above 100 µM in the assay with OVCAR-4 ovarian, 73.3 µM in the assay on OVCAR-5 ovarian and above 100 µM in the assay on RXF 393 renal.

Regarding `CCSCC(=O)N1CCc2c([nH]c3ccccc23)C1=O`, the TGI in the assay with CCRF-CEM leukemia, in the assay on HCT-15 colon, in the assay with LOX IMVI melanoma, in the assay on M14 melanoma, in the assay on MCF7 breast and with MDA-N was above 100 µM in each case. The TGI in the assay with NCI-H460 lung, in the assay with OVCAR-4 ovarian, in the assay on OVCAR-5 ovarian and in the assay with RXF 393 renal was above 100 µM throughout.

For `OC12C3C4CC5C(C4[C@@H]1Br)C2[C@@](O)(c1c(F)c(F)c(F)c(F)c1F)C53` (stereo not given in full), the TGI with CCRF-CEM leukemia is above 100 µM; with HCT-15 colon, above 100 µM; with LOX IMVI melanoma, above 100 µM; in the assay with M14 melanoma, above 100 µM; in the assay on MCF7 breast, 43.7 µM; in the assay on MDA-N, above 100 µM. The TGI is above 100 µM in the assay on NCI-H460 lung, above 100 µM in the assay with OVCAR-4 ovarian, above 100 µM in the assay with OVCAR-5 ovarian and 94.3 µM in the assay on RXF 393 renal.

As for `N#Cc1nc(C(F)(F)F)oc1N`, the TGI in the assay with CCRF-CEM leukemia, in the assay on HCT-15 colon, with LOX IMVI melanoma, in the assay on M14 melanoma, in the assay on MCF7 breast and with MDA-N was above 100 µM in each case. Besides, the TGI in the assay with NCI-H460 lung, in the assay on OVCAR-4 ovarian, in the assay on OVCAR-5 ovarian and with RXF 393 renal was above 100 µM each time.

Consider `O=c1c2ncn(C3CCCCO3)c2n(-c2ccccc2)c(=S)n1-c1ccccc1` (stereo not given), for which the TGI in the assay on CCRF-CEM leukemia, with HCT-15 colon, in the assay with LOX IMVI melanoma, in the assay with M14 melanoma, with MCF7 breast and in the assay with MDA-N was above 100 µM in each case. The TGI in the assay on NCI-H460 lung was above 100 µM; with OVCAR-4 ovarian, above 87.2 µM; with OVCAR-5 ovarian, above 76.5 µM; in the assay with RXF 393 renal, 25.4 µM.

For the molecule `COc1ccc(OC)c(C(=O)/C=C/c2cc(O)c(O)cc2F)c1`, the TGI worked out at 15.7 µM in the assay on CCRF-CEM leukemia; 13.5 µM in the assay with HCT-15 colon; 16.1 µM in the assay with LOX IMVI melanoma; 19.7 µM with M14 melanoma; 14.3 µM with MCF7 breast; 0.534 µM with MDA-N. In addition, the TGI in the assay on NCI-H460 lung was 9.27 µM; with OVCAR-4 ovarian, above 90 µM; in the assay with OVCAR-5 ovarian it was 38.9 µM; in the assay with RXF 393 renal it was 23.5 µM.

On to `O=c1[nH]nc(Cc2ccccc2)n1/N=C/c1ccc([N+](=O)[O-])o1`, for which the TGI is above 100 µM in the assay on CCRF-CEM leukemia; above 100 µM with HCT-15 colon; above 100 µM in the assay with LOX IMVI melanoma; 7.1 µM in the assay on M14 melanoma; above 100 µM in the assay on MCF7 breast; 4.83 µM in the assay with MDA-N. Besides, the TGI with NCI-H460 lung was above 100 µM; with OVCAR-4 ovarian, 24.4 µM; with OVCAR-5 ovarian, 26.1 µM; in the assay with RXF 393 renal, 7.94 µM.

Consider `CCOC(=O)CN=C1Nc2ccccc2C(=O)N2CSCC12` (stereo not given), for which the TGI with CCRF-CEM leukemia, with HCT-15 colon, in the assay on LOX IMVI melanoma, in the assay with M14 melanoma, in the assay on MCF7 breast and in the assay with MDA-N was above 100 µM in each case. Further, the TGI with NCI-H460 lung, with OVCAR-4 ovarian, in the assay with OVCAR-5 ovarian and with RXF 393 renal was above 100 µM in each case.

`c1ccc2c(c1)nc1n2CCNC1`: the TGI with CCRF-CEM leukemia, with HCT-15 colon, in the assay with LOX IMVI melanoma, with M14 melanoma, in the assay with MCF7 breast and in the assay on MDA-N was above 100 µM each time. The TGI in the assay on NCI-H460 lung, with OVCAR-4 ovarian, in the assay on OVCAR-5 ovarian and in the assay with RXF 393 renal was above 100 µM in each case.

Take `Cc1ccc(S(=O)(=O)Nc2nc3ccccc3c(=O)n2C2CCCCC2)cc1`: the TGI in the assay on CCRF-CEM leukemia, in the assay on HCT-15 colon, with LOX IMVI melanoma, in the assay on M14 melanoma, in the assay with MCF7 breast and with MDA-N was above 100 µM in each case. Moreover, the TGI in the assay on NCI-H460 lung, with OVCAR-4 ovarian, in the assay with OVCAR-5 ovarian and with RXF 393 renal was above 100 µM throughout.

Take `COc1ccc(C[C@H]2NC(=O)/C=C/C[C@@H]([C@H](C)[C@H]3O[C@@H]3c3ccccc3)OC(=O)[C@H](CC(C)C)OC(=O)[C@H](C)CNC2=O)cc1`: the TGI in the assay on CCRF-CEM leukemia is above 6.99e-05 µM; with HCT-15 colon, above 0.0001 µM; with LOX IMVI melanoma, above 0.0001 µM; in the assay on M14 melanoma, 6.84e-05 µM; in the assay on MCF7 breast it was above 0.0001 µM; with MDA-N, 2.32e-05 µM. Also, the TGI in the assay with NCI-H460 lung is above 0.0001 µM; in the assay on OVCAR-4 ovarian, above 0.0001 µM; in the assay on OVCAR-5 ovarian it was above 0.0001 µM; in the assay on RXF 393 renal, above 3.12e-05 µM.

With `COc1ccc(-c2cc(C3CC3)nc(SCC(=O)O)c2C#N)cc1`, the TGI with CCRF-CEM leukemia, in the assay on HCT-15 colon, in the assay on LOX IMVI melanoma, with M14 melanoma, in the assay on MCF7 breast and in the assay with MDA-N was above 100 µM each time. Further, the TGI with NCI-H460 lung, with OVCAR-4 ovarian, in the assay on OVCAR-5 ovarian and in the assay with RXF 393 renal was above 100 µM throughout.

With `CC1(C)CC(=O)C2=C(C1)NC(SCC(=O)O)=C(C#N)C2c1ccc(Br)cc1` (stereo not given), the TGI in the assay with CCRF-CEM leukemia, in the assay on HCT-15 colon, in the assay on LOX IMVI melanoma, in the assay on M14 melanoma, with MCF7 breast and with MDA-N was above 100 µM each time. Also, the TGI with NCI-H460 lung, in the assay with OVCAR-4 ovarian, with OVCAR-5 ovarian and with RXF 393 renal was above 100 µM in each case.

Consider `c1ccc2c(c1)CCN(C1=NCCO1)C2`, for which the TGI with CCRF-CEM leukemia, in the assay with HCT-15 colon, in the assay with LOX IMVI melanoma, in the assay on M14 melanoma, in the assay on MCF7 breast and in the assay with MDA-N was above 10 µM in each case. The TGI in the assay on NCI-H460 lung, with OVCAR-4 ovarian, with OVCAR-5 ovarian and in the assay on RXF 393 renal was above 10 µM in each case.

Turning to `NC(CCl)=NC1CN2CCC1CC2` (stereo not given), the TGI in the assay with CCRF-CEM leukemia, in the assay with HCT-15 colon, with LOX IMVI melanoma, in the assay on M14 melanoma, in the assay with MCF7 breast and with MDA-N was above 100 µM each time. The TGI with NCI-H460 lung, in the assay with OVCAR-4 ovarian, in the assay on OVCAR-5 ovarian and in the assay with RXF 393 renal was above 100 µM each time.
